Our source for the solubility values is US9962333B2, “Timed release of substances to treat ocular disorders” (BOARD OF TRUSTEES OF NORTHERN ILLINOIS UNIVERSITY, priority 2013, dated 2018).

The nature of the data set: physchem. Conditions: 37 °C, aqueous with cosolvent or surfactant or cyclodextrin, thermodynamic from solid. The procedure:
(a) 50 mg of riboflavin was mixed with different concentrations of HP-β-CD (5, 10, 15, 20, 25, 30 mM)
(b) the mixture was stirred on rotary shaker for 72 hours at 37° C.
(c) after reaching equilibrium, samples were filtered through a 0.2 μm filter and suitably analyzed using UV-vis spectrophotometer.
(b) The mixture was stirred for 72 hrs. on a rotary shaker at 37° C.
(c) After reaching equilibrium, samples were filtered through 0.2 μm membrane filter & analyzed using a spectrophotometer.
(b) The solutions were left to equilibrate for 3 days on a shaker.
(c) After filtration, the solutions were analyzed by UV-vis spectroscopy.
The UV-vis absorption spectrum was obtained for each solution.
The data was used to plot a phase solubility curve for both the cyclodextrine.
50 mg of ofloxacin was added to each sample and then shaken for 72 hrs to attain equilibrium.

Values after ≈ are worked out from the molar mass of the structure shown.

Broadly, the solubility is the dissolved amount per volume that the medium holds. On to `Cc1cc2nc3c(=O)[nH]c(=O)nc-3n(C[C@H](O)[C@H](O)[C@H](O)CO)c2cc1C` [Riboflavin, riboflavin], for which the solubility at 72 h is, setting by setting: (Solubility for HPβ CD) 33 mg/mL (≈ 87.8 mM); (Solubility for methyl β CD) 31.1 mg/mL (≈ 82.6 mM).
